This is an account of results in doi:10.1101/2024.09.04.611205v1 (biorxiv, 2024).

Each structure is given as a SMILES string.

One experiment deals with cyclooxygenase 1 (COX-1) (Homo sapiens, UniProt P23219). As to the kind of experiment: fluorimetric ADHP/resorufin assay. The format is biochemical. As to conditions: read-out: % inhibition at 20 μM.
For a further experiment, the target named is T1, cyclooxygenase 2 (COX-2) (Homo sapiens, UniProt P35354).
T1 sequence (P35354 18-604): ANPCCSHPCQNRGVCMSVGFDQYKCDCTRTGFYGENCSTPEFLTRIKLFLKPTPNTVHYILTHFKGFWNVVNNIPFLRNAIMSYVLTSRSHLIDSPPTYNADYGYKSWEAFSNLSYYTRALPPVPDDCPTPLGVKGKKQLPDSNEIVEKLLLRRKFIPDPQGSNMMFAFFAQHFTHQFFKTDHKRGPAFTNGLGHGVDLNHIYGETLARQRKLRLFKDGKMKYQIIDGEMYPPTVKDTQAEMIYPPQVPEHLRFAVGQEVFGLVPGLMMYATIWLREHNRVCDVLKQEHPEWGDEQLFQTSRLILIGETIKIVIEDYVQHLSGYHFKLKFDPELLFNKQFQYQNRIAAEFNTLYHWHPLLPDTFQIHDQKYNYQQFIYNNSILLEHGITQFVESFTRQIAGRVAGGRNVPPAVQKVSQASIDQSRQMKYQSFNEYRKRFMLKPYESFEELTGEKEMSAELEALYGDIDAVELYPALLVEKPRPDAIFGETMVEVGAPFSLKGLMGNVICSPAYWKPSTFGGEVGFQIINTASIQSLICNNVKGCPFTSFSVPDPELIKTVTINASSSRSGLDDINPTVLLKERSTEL
As to the kind of experiment: fluorimetric ADHP/resorufin assay. It counts as biochemical. As to conditions: read-out: % inhibition at 20 μM.

Chain of cyclooxygenase 1 (COX-1) (P23219 24-599): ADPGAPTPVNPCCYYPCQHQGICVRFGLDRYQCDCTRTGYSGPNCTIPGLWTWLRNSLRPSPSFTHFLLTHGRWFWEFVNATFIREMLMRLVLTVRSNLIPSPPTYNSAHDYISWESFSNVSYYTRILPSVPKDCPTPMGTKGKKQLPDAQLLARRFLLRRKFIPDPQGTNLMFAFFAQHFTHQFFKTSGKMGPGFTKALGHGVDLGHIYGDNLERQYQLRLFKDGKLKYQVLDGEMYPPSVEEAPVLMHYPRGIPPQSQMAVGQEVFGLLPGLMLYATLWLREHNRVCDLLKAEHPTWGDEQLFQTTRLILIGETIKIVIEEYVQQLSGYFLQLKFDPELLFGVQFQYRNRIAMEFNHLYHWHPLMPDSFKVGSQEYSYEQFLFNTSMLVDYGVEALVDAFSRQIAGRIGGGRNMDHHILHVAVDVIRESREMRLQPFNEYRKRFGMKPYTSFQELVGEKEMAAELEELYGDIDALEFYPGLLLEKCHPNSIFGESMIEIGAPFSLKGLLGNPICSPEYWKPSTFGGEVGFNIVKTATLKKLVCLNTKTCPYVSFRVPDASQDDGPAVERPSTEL

Turning to `Cc1cccc(-c2n[nH]cc2-c2ccc3ncccc3n2)n1` [RepSox], the inhibition – broadly, the relative decrease from the control value, in per cent – at 20 µM at cyclooxygenase 1 (COX-1) was determined as 61%; at cyclooxygenase 2 (COX-2), 13%.
